Broadly, the inhibition is the drop in the measured response relative to a control, in per cent. One may read the IC50 as the point on the concentration scale where inhibition reaches its midpoint.

Assay [1] deals with T1, PDGF-receptor beta enzyme comprising the tyrosine kinase domain (Homo sapiens, UniProt P09619).
T1 construct: from amino acid 545 to 1106 of GenBank Access NO: AAA36427
Put plainly: Inhibition of PDGF-receptor kinase activity (cell-free, PLC1 peptide, 33P Flashplate). The class given is biochemical. Particulars: PDGF-R kinase activity; for inhibition at 10 µM: compound at 10 uM, read-out: Percent Inhibition @ 10 uM; for IC50: read-out: IC50. Put shortly: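 The IC50 is the inhibitor level halving kinase activity relative to inhibitor-free wells, measured as 33P captured on a streptavidin-bound biotin-PLC1 peptide. The reaction ran 60 min at 30 °C in pH 8 Tris buffer with 1 mM DTT, 5 μM ATP and the 545–1106 kinase-domain enzyme.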

A further assay has as its target c-Abl kinase (Abelson murine leukemia virus, UniProt P00521). Put plainly: Inhibition of c-Abl kinase activity (cell-free, Abl peptide substrate, 33P Flashplate). The class given is biochemical. Particulars: IC50 for the c-Abl kinase activity. Here is the method: The inhibitory activity of compounds within the scope of the invention on c-Abl kinase activity was tested according to the following procedure.
• 1. 10× Kinase Buffer [500 mM Tris-HCl pH=8, 100 mM MgCl2, 1 mM Na3VO4] • 2. 10 mM DTT [final concentration 1 mM] • 3. 10 mM ATP [final concentration 5 μM] (Gibco, Cat No:18330-019, Carlsbad, Calif.) • 4. ^33P-γ-ATP [NEG-602H; 2000–3000 Ci/mmol], 2 μCuries per well at 10 μCi/μl (0.2 μl/well) • 5. Abl enzyme (New England Biolabs, Cat No. P6050L, Beverly, Mass.) at 100 Units/μl use 10 Units/well (0.1 μl/well) • 6. Enzyme Dilution Buffer [50 mM Tris-HCl pH=8.0, 0.1% BSA] • 7. Wash/Stop Buffer [PBS+100 mM EDTA] • 8. NEN Streptavidin Flashplates (New England Nuclear, Cat No. SMP-103, Boston, Mass.). • 9. Abl Peptide Substrate (Biotin-[…]-amide) at 1 mM in 50 mM Tris-HCL pH=8.0. (Use at 1.0 μM). Procedure
Reagents were first mixed according to the following regimen:
The above reaction mixture was dispensed into each well of a Flashplate at 70 μl/well. To test the effect of a compound on Abl kinase activity, the test compound either in a fixed concentration or in serially diluted concentrations in 100% DMSO was added to appropriate wells at 1 μl/well.
Enzyme Abl was diluted in enzyme dilution buffer as following:
The kinase reaction was started by adding 30 μl of diluted Abl enzyme solution to each well on the Flashplate containing hot ATP (2 μCi/well) and Abl peptide substrate (at 1 μM final conc.), except wells of column 12 rows E and F, which were used to calculate the plate background. The Flashplate was swirled to mix and was incubated at 30° C. for 60 minutes. Then, the reaction mixture was discarded and the Flashplate was washed 3 times each with 200 μL Wash/Stop Buffer. Subsequently, each well on the Flashplate was filled with 200 μl of Wash/Stop buffer. The amount of ^33P retained in each well was measured using a Packard TopCount after the plate was sealed with a transparent plate sealer.
In order to test the potency of inhibition of present compounds, an IC50 for an individual compound was measured using the above procedure. As used herein, the IC50 for c-Abl kinase activity refers to the concentration of an inhibitor at which the activity of c-Abl kinase is reduced by one-half as compared with reactions containing no inhibitor.

Sequence of c-Abl kinase (P00521 115-385): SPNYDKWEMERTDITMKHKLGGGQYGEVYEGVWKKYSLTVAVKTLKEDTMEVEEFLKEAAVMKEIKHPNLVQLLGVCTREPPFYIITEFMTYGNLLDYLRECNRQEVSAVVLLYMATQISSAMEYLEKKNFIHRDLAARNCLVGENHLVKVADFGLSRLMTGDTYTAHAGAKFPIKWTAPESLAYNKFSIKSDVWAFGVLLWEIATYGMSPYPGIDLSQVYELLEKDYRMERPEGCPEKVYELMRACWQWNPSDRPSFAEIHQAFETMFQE
T1 sequence (P09619 545-1106): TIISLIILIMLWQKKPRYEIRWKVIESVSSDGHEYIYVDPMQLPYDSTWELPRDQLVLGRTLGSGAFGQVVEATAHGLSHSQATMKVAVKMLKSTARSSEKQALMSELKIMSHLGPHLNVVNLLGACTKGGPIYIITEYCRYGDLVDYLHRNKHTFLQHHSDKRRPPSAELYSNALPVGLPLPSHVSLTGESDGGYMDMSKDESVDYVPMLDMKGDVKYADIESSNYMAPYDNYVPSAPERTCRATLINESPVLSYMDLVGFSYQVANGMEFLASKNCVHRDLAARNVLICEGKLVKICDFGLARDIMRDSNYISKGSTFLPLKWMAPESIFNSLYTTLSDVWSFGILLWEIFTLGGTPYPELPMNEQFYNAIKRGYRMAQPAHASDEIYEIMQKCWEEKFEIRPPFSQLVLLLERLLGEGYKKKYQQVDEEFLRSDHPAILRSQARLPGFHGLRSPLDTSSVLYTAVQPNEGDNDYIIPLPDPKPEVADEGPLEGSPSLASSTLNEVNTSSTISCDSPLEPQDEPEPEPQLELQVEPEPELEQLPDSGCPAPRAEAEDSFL

`COc1cccc(Nc2[nH]nc3c2Cc2cc(OCCCN4CCCC4)c(OC)cc2-3)c1` [Compound 156, (3-Methoxy-phenyl)-[7-methoxy-6-(3-pyrrolidin-1-yl-propoxy)-2,4-dihydro-indeno[1,2-c]pyrazol-3-yl]-amine]: in assay [1], the inhibition at 10 µM is 87.5%. Besides, the IC50 in assay [1] worked out at 1 nM; at c-Abl kinase it was 89 nM.

For the compound `CN(C)CCCOc1ccc2c(c1)Cc1c-2n[nH]c1Nc1cccc(F)c1` [Compound 160, [6-(3-Dimethylamino-propoxy)-2,4-dihydro-indeno[1,2-c]pyrazol-3-yl]-(3-fluoro-phenyl)-amine], the inhibition at 10 µM in assay [1] came out at 94.5%. Also, the IC50 in assay [1] was 58.5 nM; at c-Abl kinase, 1020 nM.

In the case of `COc1ccc2c(c1)-c1n[nH]c(Nc3ccc(F)cc3)c1C2` [Compound 170, (4-Fluoro-phenyl)-(7-methoxy-2,4-dihydro-indeno[1,2-c]pyrazol-3-yl)-amine], the inhibition at 10 µM in assay [1] amounted to 95.5%. Further, the half-maximal inhibitory concentration (IC50) in assay [1] worked out at 26.8 nM; on c-Abl kinase, 75 nM.

With `COc1ccc2c(c1)-c1n[nH]c(Nc3cccc(F)c3)c1C2` [Compound 172, (3-Fluoro-phenyl)-(7-methoxy-2,4-dihydro-indeno[1,2-c]pyrazol-3-yl)-amine], in assay [1], the inhibition at 10 µM worked out at 55%. In addition, the IC50 was determined as 13.3 nM in assay [1] and 84 nM at c-Abl kinase.

Regarding `COc1cc2c(cc1OCCCN1CCOCC1)Cc1c-2n[nH]c1Nc1ccc(F)c(Cl)c1` [Compound 179, (3-Chloro-4-fluoro-phenyl)-[7-methoxy-6-(3-morpholin-4-yl-propoxy)-2,4-dihydro-indeno[1,2-c]pyrazol-3-yl]-amine], in assay [1], the inhibition at 10 µM came to 92% and the IC50 amounted to 71.2 nM. At c-Abl kinase, the IC50 came to 870 nM.

As to `COc1cc2c(cc1OCCCN1CCCC1)Cc1c-2n[nH]c1Nc1cccc(F)c1` [Compound 180, (3-Fluoro-phenyl)-[7-methoxy-6-(3-pyrrolidin-1-yl-propoxy)-2,4-dihydro-indeno[1,2-c]pyrazol-3-yl]-amine], in assay [1], the inhibition at 10 µM is 98.5% and the IC50 came out at 13.3 nM. Besides, the IC50 at c-Abl kinase stood at 82 nM.

In the case of `COc1cc2c(cc1OCCCN1CCCC1)Cc1c-2n[nH]c1Nc1ccc(F)c(Cl)c1` [Compound 181, (3-Chloro-4-fluoro-phenyl)-[7-methoxy-6-(3-pyrrolidin-1-yl-propoxy)-2,4-dihydro-indeno[1,2-c]pyrazol-3-yl]-amine], in assay [1], the inhibition at 10 µM amounted to 74.5% and the IC50 turned out to be 15.4 nM. The IC50 at c-Abl kinase was determined as 56 nM.

As for `Cc1ccc2c(c1)-c1n[nH]c(Nc3cccc(F)c3)c1C2` [Compound 182, (3-Fluoro-phenyl)-(7-methyl-2,4-dihydro-indeno[1,2-c]pyrazol-3-yl)-amine], the inhibition at 10 µM in assay [1] worked out at 107%. In addition, the IC50 in assay [1] was determined as 5 nM; at c-Abl kinase, 93 nM.

As to `Cc1ccc2c(c1)-c1n[nH]c(Nc3cc(F)ccc3F)c1C2` [Compound 185, (2,5-Difluoro-phenyl)-(7-methyl-2,4-dihydro-indeno[1,2-c]pyrazol-3-yl)-amine], in assay [1], the inhibition at 10 µM stood at 84% and the IC50 came to 50 nM. The IC50 on c-Abl kinase stood at 666 nM.

As to `Clc1ccc2c(c1)Cc1c-2n[nH]c1Nc1cccnc1` [Compound 188, (6-Chloro-2,4-dihydro-indeno[1,2-c]pyrazol-3-yl)-pyridin-3-yl-amine], in assay [1], the inhibition at 10 µM came out at 74% and the IC50 came to 43.7 nM. On c-Abl kinase, the IC50 was 1400 nM.

For `COc1cccc(Nc2[nH]nc3c2Cc2cc(Cl)ccc2-3)c1` [Compound 190, (6-Chloro-2,4-dihydro-indeno[1,2-c]pyrazol-3-yl)-(3-methoxy-phenyl)-amine], the inhibition at 10 µM in assay [1] came to 80%. For the same compound, the IC50 in assay [1] is 40 nM; on c-Abl kinase, 69 nM.

Take `COc1cc2c(cc1OCCCN(C)C)Cc1c-2n[nH]c1Nc1cccc(F)c1` [Compound 199, [6-(3-Dimethylamino-propoxy)-7-methoxy-2,4-dihydro-indeno[1,2-c]pyrazol-3-yl]-(3-fluoro-phenyl)-amine]: in assay [1], the inhibition at 10 µM came to 83% and the IC50 came to 5.9 nM. Besides, at c-Abl kinase, the IC50 was 27 nM.

Consider `COc1cc2c(cc1OCCCN(C)C)Cc1c-2n[nH]c1Nc1ccc(F)c(Cl)c1` [Compound 200, (3-Chloro-4-fluoro-phenyl)-[6-(3-dimethylamino-propoxy)-7-methoxy-2,4-dihydro-indeno[1,2-c]pyrazol-3-yl]-amine], for which, in assay [1], the inhibition at 10 µM stood at 87%. Moreover, the IC50 in assay [1] worked out at 2 nM; at c-Abl kinase, 20 nM.

In the case of `Fc1ccc(Nc2[nH]nc3c2Cc2cc(F)ccc2-3)cc1` [Compound 201, (6-Fluoro-2,4-dihydro-indeno[1,2-c]pyrazol-3-yl)-(4-fluoro-phenyl)-amine], in assay [1], the inhibition at 10 µM amounted to 96% and the IC50 is 9 nM. Further, the IC50 on c-Abl kinase amounted to 217 nM.

Consider `Fc1ccc2c(c1)Cc1c-2n[nH]c1Nc1ccc(F)c(Cl)c1` [Compound 202, (3-Chloro-4-fluoro-phenyl)-(6-fluoro-2,4-dihydro-indeno[1,2-c]pyrazol-3-yl)-amine], for which the inhibition at 10 µM in assay [1] is 77%. Moreover, the figures for the IC50 (in assay [1]; at c-Abl kinase) were 12.4 nM and 2650 nM, respectively.

For the compound `COc1ccc(OC)c(Nc2[nH]nc3c2Cc2cc(F)ccc2-3)c1` [Compound 203, (2,5-Dimethoxy-phenyl)-(6-fluoro-2,4-dihydro-indeno[1,2-c]pyrazol-3-yl)-amine], in assay [1], the inhibition at 10 µM worked out at 86% and the IC50 came out at 16 nM. Besides, on c-Abl kinase, the IC50 is 160 nM.

`COc1cc(Nc2[nH]nc3c2Cc2cc(F)ccc2-3)cc(OC)c1` [Compound 204, (3,5-Dimethoxy-phenyl)-(6-fluoro-2,4-dihydro-indeno[1,2-c]pyrazol-3-yl)-amine]: in assay [1], the inhibition at 10 µM was found to be 90% and the IC50 is 38 nM. The IC50 at c-Abl kinase was found to be 165 nM.

Regarding `COc1ccc(Nc2[nH]nc3c2Cc2cc(F)ccc2-3)cc1OC` [Compound 205, (3,4-Dimethoxy-phenyl)-(6-fluoro-2,4-dihydro-indeno[1,2-c]pyrazol-3-yl)-amine], in assay [1], the inhibition at 10 µM turned out to be 86% and the IC50 is 47 nM. Also, at c-Abl kinase, the IC50 worked out at 328 nM.

As to `COc1cc2c(cc1OC)-c1n[nH]c(Nc3cc(F)cc(F)c3)c1C2` [Compound 207, (3,5-Difluoro-phenyl)-(6,7-dimethoxy-2,4-dihydro-indeno[1,2-c]pyrazol-3-yl)-amine], in assay [1], the inhibition at 10 µM worked out at 89% and the IC50 turned out to be 10 nM. Further, the IC50 on c-Abl kinase was found to be 62 nM.

On to `COc1cc2c(cc1OC)-c1n[nH]c(Nc3cccc(SC)c3)c1C2` [Compound 208, (6,7-Dimethoxy-2,4-dihydro-indeno[1,2-c]pyrazol-3-yl)-(3-methylsulfanyl-phenyl)-amine], for which, in assay [1], the inhibition at 10 µM was 82% and the IC50 was 3 nM. Moreover, the IC50 on c-Abl kinase stood at 9 nM.

As for `CCc1cccc(Nc2[nH]nc3c2Cc2cc(OC)c(OC)cc2-3)c1` [Compound 209, (6,7-Dimethoxy-2,4-dihydro-indeno[1,2-c]pyrazol-3-yl)-(3-ethyl-phenyl)-amine], the inhibition at 10 µM in assay [1] was 99%. Besides, the IC50 amounted to 32.8 nM in assay [1] and 7 nM on c-Abl kinase.

As to `COc1cc2c(cc1OC)-c1n[nH]c(Nc3ccc(OCc4ccccc4)cc3)c1C2` [Compound 218, (4-Benzyloxy-phenyl)-(6,7-dimethoxy-2,4-dihydro-indeno[1,2-c]pyrazol-3-yl)-amine], the inhibition at 10 µM in assay [1] turned out to be 81%. In addition, the results for the IC50 (in assay [1]; at c-Abl kinase) were 2010 nM and 439 nM, respectively.

`COc1cc2c(cc1OCCCn1ccnc1)Cc1c-2n[nH]c1Nc1cccc(F)c1` [Compound 226, (3-Fluoro-phenyl)-[6-(3-imidazol-1-yl-propoxy)-7-methoxy-2,4-dihydro-indeno[1,2-c]pyrazol-3-yl]-amine]: in assay [1], the inhibition at 10 µM worked out at 102% and the IC50 is 3 nM. The IC50 at c-Abl kinase stood at 245 nM.

These data come from patent publication US7196110B2, “N-substituted tricyclic 3-aminopyrazoles as inhibitors for the treatment of cell proliferative disorders” (Janssen Phamaceutica N.V., priority 2002, dated 2007).
